Several values for one entry are separate records, joined by “and”; a condition that tells them apart may be missing. Equal values may be shown once. Toxic doses and inconclusive results are not listed. Residues, ends and D or L forms follow the SMILES beside them. *: point of attachment. Trt = c1ccc(C(c2ccccc2)(c2ccccc2)*)cc1; Cbz = O=C(OCc1ccccc1)*
Tested on: B6C3F1 mice, Lewis lung carcinoma iv, survival T/C
Assay: NCI In Vivo Anticancer Drug Screen. Data for tumor model Lewis Lung Carcinoma (intravenous) in B6C3F1 mice
Conditions: endpoint: median survival time, schedule: Q01DX009 (ip), higher = longer survival
Summary of the method: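 Tumors were transplanted into mice, which were then dosed with compound or vehicle. Survival was recorded in each group, and the treated figure was divided by the control figure.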

[1] = dose: 6.25 mg/kg/injection, vehicle: saline
[2] = dose: 12.5 mg/kg/injection, vehicle: saline
[3] = dose: 25.0 mg/kg/injection, vehicle: saline
[4] = dose: 6.25 mg/kg/injection, vehicle: water
[5] = dose: 12.5 mg/kg/injection, vehicle: water
[6] = dose: 50.0 mg/kg/injection, vehicle: saline
[7] = dose: 12.5 mg/kg/injection, vehicle: distilled water + Tween-80
[8] = dose: 25.0 mg/kg/injection, vehicle: distilled water + Tween-80
[9] = dose: 50.0 mg/kg/injection, vehicle: distilled water + Tween-80
[10] = dose: 100.0 mg/kg/injection, vehicle: distilled water + Tween-80
[11] = dose: 200.0 mg/kg/injection, vehicle: distilled water + Tween-80

C[C@@H]1C[C@@H]([C@H](O)CC2CC(=O)NC(=O)C2)C(=O)[C@@H](C)C1 was tested. Which T/C [1] did it give?
Its T/C is 100 % of control.

And the T/C [2]?
Its T/C is 105 % of control.

And the T/C [3]?
The T/C was 102 % of control.

Which results are given for [Cl][Pt][Cl].[NH-]C(CO)C(=O)O (stereo not given)?
T/C [4]: 101 % of control; T/C [5]: 111 % of control; T/C (dose: 25.0 mg/kg/injection, vehicle: water): 105 % of control; T/C (dose: 50.0 mg/kg/injection, vehicle: water): 110 % of control

How did the T/C (dose: 12.0 mg/kg/injection, vehicle: saline) turn out when CCn1cnc2c(=S)nc[nH]c21 was run?
The T/C was 100 % of control.

And the T/C [3]?
The T/C was 99 % of control.

And the T/C [6]?
The T/C was 104 % of control.

With O=C1N(CC2CO2)CCN1CC1CO1 (stereo not given) as the compound, how does the T/C [2] read?
Its T/C is 114 % of control.

What about the T/C [3] of the same compound?
Its T/C is 112 % of control.

And the T/C [6]?
Its T/C is 114 % of control.

What does the source list for NC(=S)N/N=C\c1ncccc1OCc1cccc(N)c1?
T/C [7]: 103 % of control; T/C [8]: 109 % of control; T/C [9]: 109 % of control; T/C [10]: 102 % of control; T/C [11]: 121 % of control

For CC1(C)CC23C4COC(=O)C2CCC1C3CC4=O (stereo not given), which T/C (dose: 3.0 mg/kg/injection, vehicle: DMSO) is on record?
Its T/C is 103 % of control.

What about the T/C (dose: 6.0 mg/kg/injection, vehicle: DMSO) of the same compound?
The T/C was 97 % of control and 99 % of control.

And the T/C (dose: 12.0 mg/kg/injection, vehicle: DMSO)?
The T/C was 100 % of control and 102 % of control.

What about the T/C (dose: 24.0 mg/kg/injection, vehicle: DMSO) of the same compound?
The T/C was 95 % of control and 124 % of control.

And the T/C (dose: 48.0 mg/kg/injection, vehicle: DMSO)?
The T/C was 103 % of control and 106 % of control.

And the T/C (dose: 96.0 mg/kg/injection, vehicle: DMSO)?
Its T/C is 102 % of control.

What about the T/C (dose: 192.0 mg/kg/injection, vehicle: DMSO) of the same compound?
The T/C was 98 % of control.

Which results are given for C[n+]1c(-c2cccc(OCCOCCOc3cccc(-c4c5cc(N)ccc5c5ccc(N)cc5[n+]4C)c3)c2)c2cc(N)ccc2c2ccc(N)cc21?
T/C (dose: 0.5 mg/kg/injection, vehicle: water): 105 % of control; T/C (dose: 0.75 mg/kg/injection, vehicle: saline with Tween-80): 103 % of control; T/C (dose: 1.0 mg/kg/injection, vehicle: water): 96 % of control; T/C (dose: 1.5 mg/kg/injection, vehicle: saline with Tween-80): 102 % of control; T/C (dose: 2.0 mg/kg/injection, vehicle: water): 100 % of control; T/C (dose: 3.0 mg/kg/injection, vehicle: saline with Tween-80): 99 % of control; T/C (dose: 4.0 mg/kg/injection, vehicle: water): 100 % of control and 105 % of control; T/C (dose: 6.0 mg/kg/injection, vehicle: saline with Tween-80): 108 % of control; T/C (dose: 8.0 mg/kg/injection, vehicle: water): 105 % of control and 110 % of control; T/C (dose: 16.0 mg/kg/injection, vehicle: water): 116 % of control

Nc1ncn(C2OC(CO)C(O)C2O)c(=O)n1 (stereo not given) was tested. Which T/C [1] did it give?
Its T/C is 111 % of control.

What about the T/C [2] of the same compound?
Its T/C is 120 % of control.

And the T/C [3]?
The T/C was 115 % of control.

And the T/C [6]?
The T/C was 123 % of control.

What about the T/C (dose: 200.0 mg/kg/injection, vehicle: saline) of the same compound?
Its T/C is 170 % of control.

And the T/C (dose: 400.0 mg/kg/injection, vehicle: saline)?
Its T/C is 161 % of control.

How did the T/C (dose: 3.12 mg/kg/injection, vehicle: water) turn out when COc1cccc2c1C(=O)c1c(O)c3c(c(O)c1C2=O)C[C@@](O)(/C(C)=N\O)C[C@@H]3OC1CC(N)C(O)C(C)O1 (stereo not given in full) was run?
Its T/C is 90 % of control.

What about the T/C [4] of the same compound?
The T/C was 86 % of control.

And the T/C [5]?
The T/C was 90 % of control.

What does the source list for Cc1c(N)nc(C(CC(N)=O)NCC(N)C(N)=O)nc1C(=O)NC(C(=O)NC(C)C(O)C(C)C(=O)NC(C(=O)NCCc1nc(-c2nc(C(=O)NCCCNCCCc3ccccn3)cs2)cs1)C(C)O)C(OC1OC(CO)C(O)C(O)C1OC1OC(CO)C(O)C(OC(N)=O)C1O)c1cnc[nH]1 (stereo not given)?
T/C (dose: 2.0 mg/kg/injection, vehicle: saline): 113 % of control; T/C (dose: 3.0 mg/kg/injection, vehicle: saline + alcohol): 108 % of control; T/C (dose: 4.0 mg/kg/injection, vehicle: saline): 110 % of control; T/C (dose: 6.0 mg/kg/injection, vehicle: saline + alcohol): 108 % of control; T/C [1]: 122 % of control; T/C (dose: 8.0 mg/kg/injection, vehicle: saline): 114 % of control; T/C (dose: 12.0 mg/kg/injection, vehicle: saline + alcohol): 123 % of control; T/C [2]: 123 % of control

With OCCO as the compound, how does the T/C (dose: 0.12 % in 0.5 ml injection vol, vehicle: water) read?
Its T/C is 107 % of control.

And the T/C (dose: 0.25 % in 0.5 ml injection vol, vehicle: water)?
Its T/C is 109 % of control.

What about the T/C (dose: 0.5 % in 0.5 ml injection vol, vehicle: water) of the same compound?
The T/C was 95 % of control.

What about the T/C (dose: 1.0 % in 0.5 ml injection vol, vehicle: water) of the same compound?
Its T/C is 99 % of control.

And the T/C (dose: 2.0 % in 0.5 ml injection vol, vehicle: water)?
The T/C was 97 % of control.

What about the T/C (dose: 4.0 % in 0.5 ml injection vol, vehicle: water) of the same compound?
Its T/C is 99 % of control.

How did the T/C (dose: 16.0 mg/kg/injection, vehicle: saline with Tween-80) turn out when Cc1c(O)ccc(=O)n1O was run?
Its T/C is 101 % of control.

What about the T/C (dose: 32.0 mg/kg/injection, vehicle: saline with Tween-80) of the same compound?
Its T/C is 99 % of control.

What about the T/C (dose: 64.0 mg/kg/injection, vehicle: saline with Tween-80) of the same compound?
Its T/C is 103 % of control.

And the T/C (dose: 128.0 mg/kg/injection, vehicle: saline with Tween-80)?
Its T/C is 89 % of control.

O=C(O[Si](Cc1ccccc1)(Cc1ccccc1)Cc1ccccc1)N(CCCl)CCCl was tested. Which T/C (dose: 6.25 mg/kg/injection, vehicle: saline with Tween-80) did it give?
The T/C was 100 % of control.

And the T/C (dose: 12.5 mg/kg/injection, vehicle: saline with Tween-80)?
The T/C was 108 % of control.

What about the T/C (dose: 25.0 mg/kg/injection, vehicle: saline with Tween-80) of the same compound?
Its T/C is 90 % of control and 100 % of control.

And the T/C (dose: 50.0 mg/kg/injection, vehicle: saline with Tween-80)?
Its T/C is 103 % of control.

What about the T/C (dose: 100.0 mg/kg/injection, vehicle: saline with Tween-80) of the same compound?
Its T/C is 108 % of control and 123 % of control.

And the T/C (dose: 200.0 mg/kg/injection, vehicle: saline with Tween-80)?
The T/C was 124 % of control.

Cn1cnc([N+](=O)[O-])c1Sc1nc(N)nc2c1ncn2C1OC(CO)C(O)C1O (stereo not given) was tested. Which T/C (dose: 1.56 mg/kg/injection, vehicle: suspension in saline) did it give?
Its T/C is 105 % of control.

What about the T/C (dose: 3.12 mg/kg/injection, vehicle: suspension in saline) of the same compound?
The T/C was 100 % of control.

What about the T/C (dose: 6.25 mg/kg/injection, vehicle: suspension in saline) of the same compound?
The T/C was 105 % of control.

For COC(=O)C(CSC(c1ccccc1)(c1ccccc1)c1ccccc1)NC(=O)C(CC(N)=O)NC(=O)OCc1ccccc1 (stereo not drawn) (Cbz-Asn-Cys(Trt)-OMe; configuration not given here), which T/C [7] is on record?
The T/C was 97 % of control.

And the T/C [8]?
Its T/C is 103 % of control.

What about the T/C [9] of the same compound?
The T/C was 103 % of control.

And the T/C [10]?
The T/C was 98 % of control.

And the T/C [11]?
The T/C was 97 % of control.

And the T/C (dose: 400.0 mg/kg/injection, vehicle: distilled water + Tween-80)?
Its T/C is 98 % of control.

Which results are given for O=c1[nH]cc(F)c(=O)[nH]1?
T/C (dose: 5.0 mg/kg/injection, vehicle: saline): 105 % of control; T/C (dose: 10.0 mg/kg/injection, vehicle: saline): 97 % of control and 102 % of control; T/C (dose: 20.0 mg/kg/injection, vehicle: saline): 107 % of control

What does the source list for OCCN1CCN(CC/C=C2/c3ccccc3Sc3ccc(Cl)cc32)CC1?
T/C (dose: 1.56 mg/kg/injection, vehicle: saline): 99 % of control; T/C (dose: 3.12 mg/kg/injection, vehicle: saline): 103 % of control; T/C [1]: 98 % of control; T/C [2]: 103 % of control; T/C [3]: 110 % of control

Source: PubChem BioAssay AID276 (DTP/NCI, 2004)
